Reference: US20250011281A1, “THERAPEUTIC ALKALOID COMPOUNDS” (Sensorium Therapeutics, Inc., priority 2023, published 2025)
Read-outs that look alike come from different tables or passages of the source.

Legend:
SERT = target: T1, SERT (Homo sapiens, UniProt P31645); assay: SERT Inhibition Assay (Neurotransmitter Transportation Fluorescence assay); format: cell-based; settings: for IC50 Ratio to (−) Mesembrine: SERT assay, ratio to compound 0001
T1 construct: expressed in transfected cells
Method: Example A: SERT Inhibition Assay
SERT inhibition was measured using a Neurotransmitter Transportation Fluorescence assay. Briefly, stable 5HHH cells were prepared in a 384 microwell plate. Compounds were prepared by in assay buffer (20 mM HEPES, 0.1% BSA). The compounds were added to the plated cells and incubated for 30 minutes at 37° C. 25 μL of dye solution (Molecular Devices Neurotransmitter Transporter Uptake Assay Kit) was added per well and incubated for 30 minutes at 37° C. The plates were then read on a plate reader.

5-HTT = 5-HTT (Homo sapiens, UniProt P31645); assay: Potency at 5-HTT compared to mesembrine
[1] = Metabolic stability compared to mesembrine; format: in vitro ADME
5-HT transporter (SERT) = 5-HT transporter (SERT) (Homo sapiens, UniProt P31645); settings: concentration response curves; cited from earlier work
[2] = stable 5HHH cells, 30 minutes at 37° C., read-out: SERT Assay Potency Range

T1 sequence (P31645 whole entry, species assumed): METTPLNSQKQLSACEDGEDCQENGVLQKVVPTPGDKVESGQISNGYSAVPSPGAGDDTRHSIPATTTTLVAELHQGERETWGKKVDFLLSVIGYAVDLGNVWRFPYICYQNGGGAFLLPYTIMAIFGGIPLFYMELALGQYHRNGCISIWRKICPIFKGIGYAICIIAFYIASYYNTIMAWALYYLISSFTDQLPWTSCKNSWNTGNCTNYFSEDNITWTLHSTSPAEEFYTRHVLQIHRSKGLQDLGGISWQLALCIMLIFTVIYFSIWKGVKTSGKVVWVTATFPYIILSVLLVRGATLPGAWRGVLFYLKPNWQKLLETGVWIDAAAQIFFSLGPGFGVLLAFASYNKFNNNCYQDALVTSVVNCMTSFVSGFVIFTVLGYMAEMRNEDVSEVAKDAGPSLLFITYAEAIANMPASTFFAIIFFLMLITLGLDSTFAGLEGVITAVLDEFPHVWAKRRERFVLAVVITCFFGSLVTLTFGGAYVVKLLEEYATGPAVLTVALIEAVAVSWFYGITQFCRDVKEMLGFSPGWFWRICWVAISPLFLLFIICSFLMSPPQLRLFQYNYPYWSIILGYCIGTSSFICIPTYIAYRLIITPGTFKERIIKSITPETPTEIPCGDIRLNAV
5-HTT, sequence (P31645 whole entry, species assumed): as above
5-HT transporter (SERT), sequence (P31645 whole entry, species assumed): as above

| SMILES | IC50 Ratio to (−) Mesembrine (SERT) | IC50 (SERT; [2]) | further results |
| --- | --- | --- | --- |
| COc1cc([C@@]23CC[C@@H](O)C[C@@H]2N(C)CC3)ccc1OC(F)F [Compound 2723] | ≤0.5 |  | IC50 (SERT): < 50 nM |
| COc1ccc([C@@]23CC[C@H](O)C[C@@H]2N(C)CC3)cc1OC [6-epi-mesembranol] |  |  | potency at 5-HTT (5-HTT): decrease in potency; metabolic stability [1]: enhanced metabolic stability |
| COc1ccc([C@]23CCN(C)[C@H]2C[C@@H](O)[C@@H]2O[C@@H]23)cc1OC [Compound 1930] | ≥10 | 100 to 500 nM |  |
| COc1ccc([C@@]23C=C[C@H](O)C[C@@H]2N(C)CC3)cc1OC [Compound 0021] | ≥10 | 100 to 500 nM |  |
| CCN1CC[C@]2(c3ccc(OC)c(OC)c3)CC[C@@H](O)C[C@H]12 [Compound 1001] | ≥100 | > 1000 nM |  |
| CCOc1ccc([C@@]23CC[C@H](O)C[C@@H]2N(C)CC3)cc1OCC [Compound 1764] | ≤0.5 | < 50 nM |  |
| COc1ccc([C@@]23C=C[C@@H](O)C[C@@H]2N(C)CC3)cc1OC [Mesembrenol, mesembrenol] |  |  | nH (5-HT transporter (SERT)): 1.1 |
| CCN1CC[C@]2(c3ccc(OC)c(OC)c3)CC[C@H](O)C[C@H]12 [Compound 1002] | ≥100 | 500 to 1000 nM |  |
| COc1ccc([C@@]23CCN(C)[C@@H]2C[C@H](O)[C@@H]2O[C@@H]23)cc1OC (single isomer, unassigned) [Compound 1932] | ≥10 | 100 to 500 nM |  |
| COc1cc([C@@]23CC[C@H](O)C[C@@H]2N(C)CC3)ccc1OC(F)F [Compound 2724] | ≤0.5 | < 50 nM |  |
| COc1cc([C@@]23CC[C@H](O)C[C@@H]2N(C)CC3)ccc1O [Compound 2700] | ≥1.0 | < 50 nM |  |
| CCCOc1cc([C@@]23CC[C@@H](O)C[C@@H]2N(C)CC3)ccc1OC [Compound 0707] | ≥10 | 50 to 100 nM |  |
| COc1ccc([C@]23C=C[C@H](O)C[C@H]2N(C)CC3)cc1OC [Compound 0023] | ≥10 | 100 to 500 nM |  |
| COc1ccc([C@]23CCN(C)[C@H]2[C@H]2CC[C@@H]3C[C@H]2O)cc1OC [Compound 1933] | ≥1.0 | < 50 nM |  |
| CCOc1ccc([C@@]23CC[C@@H](O)C[C@@H]2N(C)CC3)cc1OCC [Compound 1763] | ≥1.0 | < 50 nM |  |
| COc1ccc([C@@]23C=C[C@@H](O)C[C@@H]2N(C)CC3)cc1OC [Compound 0020] | ≥100 | 100 to 500 nM |  |
| COc1ccc([C@@]23CC[C@@H](O)C[C@@H]2N(C)CC3)cc1OC [Compound 0018, (3aS,6R,7aS)-3a-(3,4-dimethoxyphenyl)-1-methyloctahydro-1H-indol-6-ol] | ≥1.0 | < 50 nM |  |
| COc1ccc([C@@]23CC[C@@H](O)C[C@@H]2N(C)CC3)cc1OC [mesembranol, Mesembranol] |  |  | potency at 5-HTT (5-HTT): decrease in potency; metabolic stability [1]: enhanced metabolic stability |
| CCCOc1cc([C@@]23CC[C@H](O)C[C@@H]2N(C)CC3)ccc1OC [Compound 0708] | ≥1.0 | < 50 nM |  |
| COc1ccc([C@]23C=C[C@@H](O)C[C@H]2N(C)CC3)cc1OC [Compound 0024] | ≥100 | 100 to 500 nM |  |
| COc1ccc([C@@]23CC[C@H](O)C[C@@H]2N(C)CC3)cc1OC [Compound 0019, (3aS,6S,7aS)-3a-(3,4-dimethoxyphenyl)-1-methyloctahydro-1H-indol-6-ol] | ≥1.0 | < 50 nM |  |
